Numbers after ± are expanded uncertainties.
Key:
[1] = Crystal; DTA
[2] = Molar enthalpy of transition or fusion; details: Crystal; DSC

| Normal melting temperature [1] [°C] | Molar enthalpy of transition or fusion [2] [kcal/mol] | Structure (SMILES) |
| --- | --- | --- |
| 115.50 ± 0.5 | 6.16 ± 0.179 | CCOC(=O)c1ccc(O)cc1 [ethyl 4-hydroxybenzoate] |
| 96.40 ± 0.5 | 6.34 ± 0.182 | CCCOC(=O)c1ccc(O)cc1 [propyl 4-hydroxybenzoate] |
